Tests used:
[1] = Kinetics of reaction of DHM3 with daunorubicin in methanol solvent
Method: Oxomorpholinyl dimer DHM3 (5.8 mg) was dissolved in 100 ml of oxygen-free dichloromethane by stirring under nitrogen for 1 h. A portion of the solution (1.0 ml, 1.8×10^-4 mmol) of DHM3 was transferred via syringe to the spectrophotometric compartment of a two-compartment Pyrex cell with attachment for connection to a vacuum line with an Ultra Torr Union. The solvent was then evaporated with a stream of nitrogen. Daunorubicin hydrochloride (8.83 mg) was dissolved in 100 ml of a methanolic solution of 18.9 mg of tris(hydroxymethyl)aminomethane (Tris) and 24.7 mg of Tris hydrochloride. A portion of this solution (2.5 ml, 3.9×10^-4 mmol of 6) was introduced via syringe into the second compartment of the cell. The methanol solution was freeze (liquid nitrogen)-pump (2×10^-6 Torr)-thaw degassed through four cycles, sealed, and placed in a thermostatted cell holder at 25.1±0.1° C. for about 15 min. prior to mixing the solution with DHM3. After mixing, the average absorbance at 618 and 620 nm was recorded versus time. A non-linear least-squares treatment of the data as mentioned below gave a first order rate constant for bond homolysis of DHM3 equal to 1.8×10^-3 sec^-1.
The oxomorpholinyl dimer DHM3 causes reductive elimination of the sugar moiety, daunosamine, of daunorubicin (6) in much the same way as the structurally related bi(3,5,5-trimethyl-2-oxomorpholin-3-yl) (9). (See Schematic FIG. 2). […] The kinetics were established by regressional, non-linear least squares fitting of the absorbance versus time data to equation 1,
-k1))(e^-k.sbsp.1^t -e^-k.sbsp.2^t)
where At is the absorbance of 7 at time t, ε7 is the extinction coefficient of 7 at 618-620 nm, [DHM3]o is the concentration of DHM-3 at time zero, k1 is the rate constant for bond homolysis of DHM3 and k2 is the rate constant for tautomerization of 7 to 8. The value obtained for k1, 1.8×10^-3 sec^-1, was approximately half that obtained for bond homolysis of 9. […]

[2] = system: drug-induced skin necrosis; experiment: Protection by DHM3 against drug-induced skin necrosis in the swine model; assay type: in vivo; settings: for Percent Reduction of Maximal Ulcer Size: DHM3 15 min later
Method: (§1) DOX HCl (2.0 mg/ml) was administered intradermally (i.d.) with a 25 gauge needle inserted approximately 4 to 5 mm into the skin. Following the injection of 0.5, 0.75 or 1.0 ml (1.0, 1.5, or 2.0 mg, respectively) DOX solution, the syringe was removed from the hub leaving the needle in place. After the indicated time interval, 1.0 ml (10 mg) DHM3 was injected through the same needle and the needle was then removed. Control sites received 1.0 ml sterile water instead of DHM3. The injection sites were along the mid-lateral aspect of each side of the swine and were 4-5 cm apart (6-8 injection sites per side). One animal was used for a dose experiment where DOX, 0.5 ml/site was injected along one side and 1.0 ml/site was injected along the contralateral side. Fifteen minutes later, DHM3 or water was injected into alternating sites as described above. A second animal received DOX, 0.75 ml/site along both sides. DHM3 or water was injected into alternating sites at times varying from 5 to 120 minutes following DOX administration.
In a separate study, equimolar amounts of several compounds used in experimental or clinical cancer chemotherapy were injected into pig skin using the same method described above. Paired injection sites were treated 15 minutes later with either H2 O or DHM3 in duplicate.
All lesions were measured by a single observer with metric calipers three times weekly for two weeks, followed by weekly measurements thereafter. The areas of skin ulceration and induration were estimated by the product of the cross perpendicular diameters. The total toxicity of DOX-induced skin ulceration was determined by calculating the area under the ulceration-time curve (AUC) in mm^2 -days.

swine skin = experiment: Intradermal DHM3 alone (control injections), tolerance and histology in swine; assay type: in vivo, miniature white swine
Method: In order to produce anthracycline induced tissue damage, clinical grade doxorubicin (DOX) hydrochloride was obtained as a representative anthracycline chemical from the Drug Synthesis Branch, Developmental Therapeutics Program, National Cancer Institute. Each vial contained 10 mg DOX hydrochloride and 50 mg lactose which was reconstituted with 5.0 ml sterile 0.9% NaCl solution to give a final drug concentration of 2.0 mg/ml. DHM3 solution was prepared by dissolving 10 mg in ice-cold water which had been purged with N2 gas for 5 minutes. Dissolution was facilitated by brief sonication to give a final concentration of 10 mg/ml. The solution was kept cold (≈4° C.) and protected from air and light.
Female weanling miniature white swine weighing approximately 12 kg were obtained from the Veterinary Resources Branch, National Institutes of Health. The development of this strain of swine has been described previously (Sachs, et al., Transplantation 22:559-567, 1976). Each animal was housed in a 6×4 ft metabolic cage and was fed standard NIH show chow, 1.5 lbs twice daily.
as §1, with “DHM3 or water was injected into alternating sites at times varying from 5 to 120 minutes following DOX administration.” left out

CC1(CO)COC(=O)C(C)(C2(C)NC(C)(CO)COC2=O)N1 (centres unmarked) [DHM3, bi(3,5-dimethyl-5-hydroxymethyl-2-oxomorpholin-3-yl)]
reaction product with daunorubicin ([1]; 1:2 molar ratio, oxygen degassed methanol, 25° C.): gives 7-deoxydaunorubicinone 8 as the only reaction product | k1 relative to that obtained for bond homolysis of 9 ([1]; methanol, 25° C.): approximately half | first order rate constant for bond homolysis of DHM3 (k1) ([1]; methanol, 25.1±0.1° C., with daunorubicin): 0.0018 s⁻¹ | Percent Reduction of Maximal Ulcer Size ([2]; against 4'-Epidoxorubicin, Exper. 4): 51% | Percent Reduction of Maximal Ulcer Size ([2]; against 4-Demethoxydaunorubicin, Exper. 4): 79% | Percent Reduction of Maximal Ulcer Size ([2]; against 5-Iminodaunorubicin, Exper. 3): 53% | Percent Reduction of Maximal Ulcer Size ([2]; against Aclarubicin, Exper. 4): 46% | Percent Reduction of Maximal Ulcer Size ([2]; against Adriamycin, Exper. 1): 77% | Percent Reduction of Maximal Ulcer Size ([2]; against Adriamycin, Exper. 2): 40% | Percent Reduction of Maximal Ulcer Size ([2]; against Daunorubicin, Exper. 2): 39% | Percent Reduction of Maximal Ulcer Size ([2]; against Menogaril, Exper. 4): 61% | Percent Reduction of Maximal Ulcer Size ([2]; against Mitomycin C, Exper. 3): 58% | protection against drug-induced skin necrosis ([2]; against Mitoxantrone): no protection observed | protection against drug-induced skin necrosis ([2]; against Vinblastine): no protection observed | protection against drug-induced skin necrosis ([2]; against Vincristine): no protection observed | protection against tissue necrosis ([2]; several anthracycline analogs and mitomycin C): effective in all cases | protection against skin injury ([2]; vinca alkaloid and mitoxantrone): did not protect | tissue injury (histology) (swine skin): did not cause any tissue injury except for mild upper dermis congestion | tolerance of control i.d. injections (swine skin): well tolerated | ulcer formation (swine skin): no ulcer formation occurred

From patent US4632922A, “Oxomorpholinyl dimer and rescue of anthracycline and mitomycin C damage” (The United States of America as represented by the …, priority 1985, dated 1986)
